Experimental data reported in patent publication US11464749B2, “Bismuth-thiol compositions and methods of use” (Microbion Corporation, priority 2018, dated 2022).
In brackets after ≈: the same amount, converted by molar mass. Like-named read-outs stand apart in the source and are kept apart here.

Legend:
[1] = tested on: Klebsiella pneumoniae; experiment: Broth microdilution MIC (Example 12)
[2] = tested on: Escherichia coli; experiment: Broth microdilution MIC (Example 12)
[3] = tested on: Pseudomonas aeruginosa; experiment: Broth microdilution MIC (Example 12)
[4] = tested on: Acinetobacter baumannii; experiment: Broth microdilution MIC (Example 12)
[5] = tested on: vancomycin-intermediate Staphylococcus aureus (VISA); experiment: Broth microdilution MIC (Example 12)
[6] = tested on: Neisseria gonorrhoeae; experiment: Agar dilution MIC (Example 11); type: cell-based; settings: read-out: MIC
[7] = K. pneumoniae ATCC BAA-1705, ESBL/KPC
[8] = K. pneumoniae ATCC BAA-1705, QC organism (Table 102)
[9] = K. pneumoniae CDC 113, ESBL/KPC
[10] = K. pneumoniae CDC 115, ESBL/KPC
[11] = K. pneumoniae CDC 120, ESBL/KPC
[12] = K. pneumoniae CDC 126, ESBL/KPC
[13] = K. pneumoniae CDC 129, ESBL/KPC
[14] = K. pneumoniae CDC 135, ESBL/VIM
[15] = K. pneumoniae CDC 138, ESBL/NDM
[16] = K. pneumoniae CDC 158, ESBL/NDM/OXA
[17] = E. coli ATCC 35218, QC organism (Table 102)
[18] = P. aeruginosa CDC 516, KPC/AmpC
[19] = P. aeruginosa CDC 518, KPC/AmpC

## C[C@H]1COc2c(N3CCN(C)CC3)c(F)cc3c(=O)c(C(=O)O)cn1c23 [LVX]
[1]; [7]
  MIC: >8 µg/mL
[1]; [8]
  MIC: >8 µg/mL
[1]; K. pneumoniae CDC 112, KPC
  MIC: 4 µg/mL (≈ 11.1 µM)
[1]; [9]
  MIC: 4 µg/mL (≈ 11.1 µM)
[1]; [10]
  MIC: >8 µg/mL
[1]; [11]
  MIC: >8 µg/mL
[1]; [12]
  MIC: 0.015 µg/mL (≈ 0.0415 µM)
[1]; [13]
  MIC: >8 µg/mL
[1]; [14]
  MIC: >8 µg/mL
[1]; [15]
  MIC: >8 µg/mL
[1]; [16]
  MIC: 4 µg/mL (≈ 11.1 µM)
[1]; K. pneumoniae MMX 9029, ESBL
  MIC: 0.12 µg/mL (≈ 0.332 µM)
[2]; E. coli ATCC 35218, ESBL
  MIC: ≤0.008 µg/mL
[2]; [17]
  MIC: ≤0.008 µg/mL
[2]; E. coli ATCC BAA-2471, NDM
  MIC: >8 µg/mL
[2]; E. coli CDC 114, ESBL/KPC
  MIC: 4 µg/mL (≈ 11.1 µM)
[2]; E. coli CDC 118, ESBL/NDM
  MIC: 8 µg/mL (≈ 22.1 µM)
[2]; E. coli CDC 435, NDM
  MIC: >8 µg/mL
[2]; E. coli CDC 451, KPC
  MIC: >8 µg/mL
[2]; E. coli CDC 503, ESBL/NDM
  MIC: >8 µg/mL
[2]; E. coli MMX 5745, KPC
  MIC: 8 µg/mL (≈ 22.1 µM)
[2]; E. coli MMX 5755, ESBL
  MIC: 8 µg/mL (≈ 22.1 µM)
[2]; E. coli MMX 5756, ESBL
  MIC: 4 µg/mL (≈ 11.1 µM)
[2]; E. coli MMX 5758, ESBL
  MIC: 8 µg/mL (≈ 22.1 µM)
[3]; P. aeruginosa CDC 230, VIM/OXA
  MIC: 8 µg/mL (≈ 22.1 µM)
[3]; P. aeruginosa CDC 231, KPC/OXA
  MIC: >8 µg/mL
[3]; P. aeruginosa CDC 241, IMP/OXA
  MIC: 8 µg/mL (≈ 22.1 µM)
[3]; P. aeruginosa CDC 246, NDM/OXA
  MIC: >8 µg/mL
[3]; P. aeruginosa CDC 250, NDM/OXA
  MIC: >8 µg/mL
[3]; P. aeruginosa CDC 356, KPC
  MIC: 0.12 µg/mL (≈ 0.332 µM)
[3]; P. aeruginosa CDC 439, IMP
  MIC: 8 µg/mL (≈ 22.1 µM)
[3]; P. aeruginosa CDC 444, VIM
  MIC: 8 µg/mL (≈ 22.1 µM)
[3]; P. aeruginosa CDC 457, VIM
  MIC: >8 µg/mL
[3]; [18]
  MIC: 0.25 µg/mL (≈ 0.692 µM)
[3]; [19]
  MIC: >8 µg/mL
[4]; A. baumannii CDC 273, ESBL/OXA
  MIC: >8 µg/mL
[4]; A. baumannii CDC 274, ESBL/OXA
  MIC: 8 µg/mL (≈ 22.1 µM)
[4]; A. baumannii CDC 275, ESBL/OXA
  MIC: 4 µg/mL (≈ 11.1 µM)
[4]; A. baumannii CDC 277, ESBL/OXA
  MIC: 8 µg/mL (≈ 22.1 µM)
[4]; A. baumannii CDC 284, ESBL/OXA
  MIC: 8 µg/mL (≈ 22.1 µM)
[4]; A. baumannii CDC 307, OXA
  MIC: 8 µg/mL (≈ 22.1 µM)
[4]; A. baumannii CDC 308, ESBL/OXA
  MIC: 4 µg/mL (≈ 11.1 µM)
[4]; A. baumannii CDC 311, OXA
  MIC: 2 µg/mL (≈ 5.53 µM)
[4]; A. baumannii CDC 312, OXA
  MIC: 2 µg/mL (≈ 5.53 µM)
[4]; A. baumannii CDC 313, ESBL/OXA
  MIC: 2 µg/mL (≈ 5.53 µM)
[4]; A. baumannii NCTC 13304, OXA
  MIC: 1 µg/mL (≈ 2.77 µM)
[5]; S. aureus NRS 1 (hVISA)
  MIC: 4 µg/mL (≈ 11.1 µM)
[5]; S. aureus NRS 2
  MIC: 4 µg/mL (≈ 11.1 µM)
[5]; S. aureus NRS 3
  MIC: >8 µg/mL
[5]; S. aureus NRS 4
  MIC: 4 µg/mL (≈ 11.1 µM)
[5]; S. aureus NRS 13
  MIC: 0.12 µg/mL (≈ 0.332 µM)
[5]; S. aureus NRS 18
  MIC: 4 µg/mL (≈ 11.1 µM)
[5]; S. aureus NRS 22
  MIC: 8 µg/mL (≈ 22.1 µM)
[5]; S. aureus NRS 24 (hVISA)
  MIC: >8 µg/mL
[5]; S. aureus NRS 27
  MIC: 8 µg/mL (≈ 22.1 µM)

## CC(C)(O/N=C(\C(=O)N[C@@H]1C(=O)N2C(C(=O)[O-])=C(C[n+]3ccccc3)CS[C@H]12)c1csc(N)n1)C(=O)O [CAZ]
[1]; [7]
  MIC: >64 µg/mL
[1]; [8]
  MIC: >64 µg/mL
[1]; K. pneumoniae CDC 112, KPC
  MIC: >64 µg/mL
[1]; [9]
  MIC: >64 µg/mL
[1]; [10]
  MIC: >64 µg/mL
[1]; [11]
  MIC: >64 µg/mL
[1]; [12]
  MIC: 4 µg/mL (≈ 7.32 µM)
[1]; [13]
  MIC: >64 µg/mL
[1]; [14]
  MIC: >64 µg/mL
[1]; [15]
  MIC: >64 µg/mL
[1]; [16]
  MIC: >64 µg/mL
[1]; K. pneumoniae MMX 9029, ESBL
  MIC: 4 µg/mL (≈ 7.32 µM)
[2]; E. coli ATCC 35218, ESBL
  MIC: 0.12 µg/mL (≈ 0.22 µM)
[2]; [17]
  MIC: 0.12 µg/mL (≈ 0.22 µM)
[2]; E. coli ATCC BAA-2471, NDM
  MIC: >64 µg/mL
[2]; E. coli CDC 114, ESBL/KPC
  MIC: >64 µg/mL
[2]; E. coli CDC 118, ESBL/NDM
  MIC: >64 µg/mL
[2]; E. coli CDC 435, NDM
  MIC: >64 µg/mL
[2]; E. coli CDC 451, KPC
  MIC: 64 µg/mL (≈ 117 µM)
[2]; E. coli CDC 503, ESBL/NDM
  MIC: >64 µg/mL
[2]; E. coli MMX 5745, KPC
  MIC: 32 µg/mL (≈ 58.5 µM)
[2]; E. coli MMX 5755, ESBL
  MIC: >64 µg/mL
[2]; E. coli MMX 5756, ESBL
  MIC: >64 µg/mL
[2]; E. coli MMX 5758, ESBL
  MIC: 16 µg/mL (≈ 29.3 µM)
[3]; P. aeruginosa CDC 230, VIM/OXA
  MIC: 64 µg/mL (≈ 117 µM)
[3]; P. aeruginosa CDC 231, KPC/OXA
  MIC: >64 µg/mL
[3]; P. aeruginosa CDC 241, IMP/OXA
  MIC: >64 µg/mL
[3]; P. aeruginosa CDC 246, NDM/OXA
  MIC: >64 µg/mL
[3]; P. aeruginosa CDC 250, NDM/OXA
  MIC: >64 µg/mL
[3]; P. aeruginosa CDC 356, KPC
  MIC: 64 µg/mL (≈ 117 µM)
[3]; P. aeruginosa CDC 439, IMP
  MIC: >64 µg/mL
[3]; P. aeruginosa CDC 444, VIM
  MIC: 32 µg/mL (≈ 58.5 µM)
[3]; P. aeruginosa CDC 457, VIM
  MIC: >64 µg/mL
[3]; [18]
  MIC: 64 µg/mL (≈ 117 µM)
[3]; [19]
  MIC: 32 µg/mL (≈ 58.5 µM)
[4]; A. baumannii CDC 273, ESBL/OXA
  MIC: 64 µg/mL (≈ 117 µM)
[4]; A. baumannii CDC 274, ESBL/OXA
  MIC: >64 µg/mL
[4]; A. baumannii CDC 275, ESBL/OXA
  MIC: >64 µg/mL
[4]; A. baumannii CDC 277, ESBL/OXA
  MIC: >64 µg/mL
[4]; A. baumannii CDC 284, ESBL/OXA
  MIC: 64 µg/mL (≈ 117 µM)
[4]; A. baumannii CDC 307, OXA
  MIC: 64 µg/mL (≈ 117 µM)
[4]; A. baumannii CDC 308, ESBL/OXA
  MIC: 64 µg/mL (≈ 117 µM)
[4]; A. baumannii CDC 311, OXA
  MIC: >64 µg/mL
[4]; A. baumannii CDC 312, OXA
  MIC: >64 µg/mL
[4]; A. baumannii CDC 313, ESBL/OXA
  MIC: >64 µg/mL
[4]; A. baumannii NCTC 13304, OXA
  MIC: >64 µg/mL

## CO/N=C(\C(=O)N[C@@H]1C(=O)N2C(C(=O)O)=C(CSc3nc(=O)c(=O)[nH]n3C)CS[C@H]12)c1csc(N)n1 [Ceftriaxone]
[6]; ATCC49226, N. gonorrhoeae MMX 683 (ATCC 49226), QC
  MIC: 0.015 µg/mL (≈ 0.027 µM)
[6]; N. gonorrhoeae MMX 6757, CTX NS
  MIC: 1 µg/mL (≈ 1.8 µM)
[6]; N. gonorrhoeae MMX 6791, CIP^R
  MIC: 0.06 µg/mL (≈ 0.108 µM)
[6]; N. gonorrhoeae MMX 6792, CIP^R
  MIC: 0.06 µg/mL (≈ 0.108 µM)
[6]; N. gonorrhoeae MMX 6793, CIP^R
  MIC: 0.03 µg/mL (≈ 0.0541 µM)
